Test results reported in article PMC5111108, “An insecticide resistance-breaking mosquitocide targeting inward rectifier potassium channels in vectors of Zika virus and malaria” (Scientific Reports, 2016).

Tests used:
Ae. aegypti [1] = experiment: Topical toxicity bioassay, Ae. aegypti (LVP and PR strains) adult females; type: in vivo, Aedes aegypti; conditions: LVP strain
Description: Topical toxicity bioassays in adult female Ae. aegypti (LVP and PR strains) were performed as described previously. […] A solvent-only treatment was included in each experiment as a negative control. Treated mosquitoes were transferred to small cages with access to 10% sucrose and held under rearing conditions for 24 h. The efficacy of a dose was measured as the percentage of treated mosquitoes in a cage that were flightless or dead at 24 h. Four to eight replicates of 10 mosquitoes were performed per dose. The ED50 values were determined using a non-linear curve fit analysis (log [inhibitor] vs. response variable-slope) in Prism 6 (Graphpad Software).
Six replicate experiments of 10 mosquitoes were performed.

AnKir1 = molecular target: T1, AnKir1 (Anopheles gambiae, UniProt A0A075M2J8); experiment: Whole-cell patch clamp of AnKir1 in HEK-293T cells; type: cell-based; conditions: for IC50: currents at -120 mV
T1 sequence (A0A075M2J8 1-555): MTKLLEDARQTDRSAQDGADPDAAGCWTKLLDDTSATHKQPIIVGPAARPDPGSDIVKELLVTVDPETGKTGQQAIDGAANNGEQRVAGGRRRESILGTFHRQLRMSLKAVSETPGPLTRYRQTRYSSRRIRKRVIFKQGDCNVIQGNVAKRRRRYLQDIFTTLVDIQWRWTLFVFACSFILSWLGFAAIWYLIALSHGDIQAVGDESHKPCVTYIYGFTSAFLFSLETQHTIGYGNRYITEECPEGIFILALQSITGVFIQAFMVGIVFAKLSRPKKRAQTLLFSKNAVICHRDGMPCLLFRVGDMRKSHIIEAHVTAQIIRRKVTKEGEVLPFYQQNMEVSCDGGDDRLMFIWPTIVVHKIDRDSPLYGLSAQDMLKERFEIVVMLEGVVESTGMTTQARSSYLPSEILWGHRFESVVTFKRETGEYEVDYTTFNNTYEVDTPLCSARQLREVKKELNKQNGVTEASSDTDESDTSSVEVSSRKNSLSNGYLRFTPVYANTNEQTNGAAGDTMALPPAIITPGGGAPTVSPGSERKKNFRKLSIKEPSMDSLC
Excerpt: Transiently transfected HEK-293T cells expressing AnKir1 cells were voltage clamped in the whole-cell configuration of the patch clamp technique, as described previously. The extracellular bath solution contained (in mM): 135 NaCl, 5 KCl, 2 CaCl2, 1 MgCl2, 5 glucose, 10 HEPES free acid, pH 7.4, 290 mOsm/kg H2O. The pipette solution contained (in mM): 135 KCl, 2 MgCl2, 1 EGTA, 10 HEPES free acid, 2 Na2ATP (Roche, Indianapolis, IN), pH 7.3, 275 mOsm. Cells were voltage clamped at −75 mV, stepped to −120 mV for 200 msec, and then ramped to 120 mV at a rate of 2.4 mV/msec. Concentration-response curves (CRCs) were constructed by measuring the effects of increasing doses of inhibitors on AnKir1 currents at −120 mV. All recordings were made at room temperature (20–23 °C).
Patch clamp electrophysiology
Patch electrodes were pulled from silanized 1.5 mm outer diameter borosilicate microhematocrit tubes using a P-1000 Flaming/Brown micropipette puller (Sutter Instrument, Novato CA, USA). Electrode resistance ranged from 2 -4 MΩ. Whole-cell currents were recorded under voltage-clamp conditions using an Axopatch 200B amplifier (Molecular D evices, Sunn yvale, CA). Electri cal conn ections to the amplifier were made using Ag/AgCl wires and 3 M KCl/agar bridges. El ectroph ysiologi cal data were collected at 5 kHz and filtered at 1 kHz.
Data acquisition and anal ys is were performed using pClamp 9.2 software (Axon Instruments). […]

An. gambiae = experiment: Blood meal processing (abdominal diameter) in An. gambiae; type: in vivo, Anopheles gambiae; conditions: topical 1 μg/mg (ED30 dose of VU041) immediately after engorgement, over 24 h
Description: Blood meal processing studies were performed with similar methods as described above, with the exception that An. gambiae were blood fed on anesthetized mice. All methods were carried out in accordance with Vanderbilt Institutional Animal Care and Use Committee approval (protocol M/13/164 to Dr. Julian Hillyer, Department of Biology, Vanderbilt University). Upon completion of blood feeding, female mosquitoes with a fully distended abdomen were selected and 200 nL of chemical at a non-lethal concentration (1 μg/mg) was applied directly to the abdomen. Any mosquito that died during the 24 h observation period was excluded from the analysis. Images of the abdomens were acquired at 0, 2, 5, 8, and 24 h through the dorsal cuticle and were measured at the widest point of the abdomen. These images were captured using bright-field illumination on a Nikon 90i light microscope (Nikon Corp., Tokyo, Japan) connected to a Photometrics CoolSNAP HQ2 high-sensitivity monochrome CCD camera (Roper Scientific, Ottobrunn, Germany). Digital images were acquired using Nikon Advanced Research NIS-Elements software. Mean abdominal diameters were compared using a one-way ANOVA with a Tukey’s post-hoc analysis (Prism 6, Graphpad Software, La Jolla, CA).

An. gambiae Akron strain = experiment: Topical toxicity bioassay, An. gambiae Akron strain adult females; type: in vivo; conditions: 24 h, adult female An. gambiae, (95% confidence limits), synergist PBO applied 4 h prior where labelled
Description: Topical toxicity bioassays were performed based on the method of Pridgeon et al.[50]. Briefly, non-blood fed adult female mosquitoes were chilled on ice for 1–3 minutes, during which 200 nL of chemical (dissolved in 95% ethanol) was applied onto the abdomen of the insect using a handheld Hamilton® micro-applicator. For synergism studies, 500 ng of the synergist (i.e., piperonyl butoxide [PBO] or S,S,S-tributyl phosphorotrithioate [DEF]) per milligram of mosquito (ng/mg) was applied to the abdomen 4 h prior to application of the insecticide. […] The three ED50 values obtained were then averaged and presented as a mean. An ethanol-only treatment was included in each experiment as a negative control. Treated mosquitoes were transferred to small cages with access to 10% sucrose and held under rearing conditions for 24 h. Mortality was recorded at 24 h.

Ae. aegypti [2] = experiment: In vivo diuresis assay in adult female Ae. aegypti (LVP); set-up: species or system Aedes aegypti; conditions: topical 1.7 μg/mg mosquito 2 h before injection of 900 nL K+-PBS, 1 h
Description: The excretory capacity of adult female Ae. aegypti (LVP strain) was measured as described previously. […] The K^+-PBS consisted of the following (in mM): 92.2 NaCl, 47.5 KCl, 10 Na2HPO4 and 2 KH2PO4 (pH 7.5). Each treatment group of 5 mosquitoes was transferred into a separate graduated, packed-cell volume tube (MidSci, St. Louis, MO) and held for 1 h at 28 °C. The volume excreted by the mosquitoes was measured visually via the graduated column at the bottom of the tube. At least 8 replicates (5 mosquitoes per replicate) were performed for each treatment. All mosquitoes were confirmed to be alive at the end of 1 h.

| SMILES | ED50 (Ae. aegypti [1]; topical, 24 h, flightless or dead) [μg/mg mosquito] | Hill coefficient (patch clamp, AnKir1) (AnKir1) | time-course and reversibility of AnKir1 inhibition (AnKir1; 10 μM, wash-out with control saline) | IC50 (AnKir1) [µM] | change of abdominal diameter after blood meal (An. gambiae) | ED50, Akron Strain (An. gambiae Akron strain) | diuretic capacity (urine excreted) compared to controls, reduction (Ae. aegypti [2]) | topical toxicity (Ae. aegypti [1]; dose near ED50 of VU041, 24 h) | AnKir1 inhibition relative to VU041 (fold less) (AnKir1; patch clamp) [fold] |
| --- | --- | --- | --- | --- | --- | --- | --- | --- | --- |
| O=C(Cn1nc(C(F)(F)F)c2c1CCCC2)N1CCCc2ccccc21 [VU041, 1-(3,4-dihydroquinolin-1(2H)-yl)-2-(3-(trifluoromethyl)-4,5,6,7-tetrahydro-1H-indazol-1-yl)ethan-1-one] | 3.24 | 1.3 | rapid and partially reversible | 0.496 | did not change over the following 24 h period | 2.8 (2.1–4.1) A μg/mg | ~ 51% |  |  |
| O=C(Cn1nc(C(F)(F)F)c2c1CCCC2)NC1CCC1 [VU937] |  |  |  | 29.7 | decreased significantly over 24 h | >10 µg/mg |  | not toxic | 60 |
| O=C(Cn1ncc2c1CCOC2)N1CCCc2ccccc21 [VU730] |  |  |  | 0.717 |  |  |  |  |  |
